These are literature values, as cited in patent US20060078922A1, “Novel purified polypeptides from haemophilus influenzae” (Affinium Pharmaceuticals, Inc., priority 2003, published 2006).

For the series, the target named is phosphopantetheine adenyltransferase (Escherichia coli, UniProt P0A6I6). Conditions: qualitative statement, species not given.
phosphopantetheine adenyltransferase, sequence (P0A6I6 whole entry): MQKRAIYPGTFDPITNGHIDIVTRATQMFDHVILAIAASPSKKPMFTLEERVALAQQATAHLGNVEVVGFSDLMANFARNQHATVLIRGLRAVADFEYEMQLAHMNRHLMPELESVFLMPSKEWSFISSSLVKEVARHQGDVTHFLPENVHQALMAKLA

Turning to `CC(C)(COP(=O)(O)OP(=O)(O)OC[C@H]1O[C@@H](n2cnc3c(N)ncnc32)[C@H](O)[C@@H]1OP(=O)(O)O)[C@@H](O)C(=O)NCCC(=O)NCCS` [Coenzyme-A], the “inhibition of phosphopantetheine adenyltransferase” value is on record as “known to inhibit”.
